Test results from patent publication US20220386606A1, “SPECIFICALLY SUBSTITUTED 3-PHENYL-5-SPIROCYCLOPENTYL-3-PYRROLIN-2-ONES AND THEIR USE AS HERBICIDES” (Bayer Aktiengesellschaft, priority 2019, published 2022).

Columns and labels:
DIGSA = assay: Post-emergence herbicidal action against DIGSA; format: in vivo, Digitaria sanguinalis; conditions: 80 g/ha, visual assessment about 3 weeks after treatment vs untreated controls
Method in brief: (§1)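 Greenhouse post-emergence test; one-leaf stage (2–3 wk post-sowing), sandy loam. Spray: WP/EC in water, 600–800 l/ha, 0.2% wetting agent, onto green parts. Visual rating ~3 wk later, % vs untreated (100% = dead, 0% = like control).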

HORMU = assay: Post-emergence herbicidal action against HORMU; format: in vivo, Hordeum murinum; conditions: 80 g/ha, visual assessment about 3 weeks after treatment vs untreated controls
Experimental: Seeds of monocotyledonous and dicotyledonous weed and crop plants are laid out in sandy loam soil in wood-fiber pots, covered with soil and cultivated in a greenhouse under good growth conditions. 2 to 3 weeks after sowing, the test plants are treated at the one-leaf stage. The compounds of the invention, formulated in the form of wettable powders (WP) or as emulsion concentrates (EC), are then sprayed onto the green parts of the plants as aqueous suspension or emulsion at a water application rate equating to 600 to 800 l/ha with addition of 0.2% wetting agent. After the test plants have been left to stand in the greenhouse under optimal growth conditions for about 3 weeks, the action of the preparations is assessed visually in comparison to untreated controls (herbicidal action in percent (%): 100% activity=the plants have died, 0% activity=like control plants).

AVEFA = assay: Post-emergence herbicidal action against AVEFA; format: in vivo, Avena fatua; conditions: 80 g/ha, visual assessment after about 3 weeks
Method in brief: as §1

LOLRI = assay: Post-emergence herbicidal action against LOLRI; format: in vivo, Lolium rigidum; conditions: 80 g/ha, visual assessment about 3 weeks after treatment vs untreated controls
Method in brief: as §1

ECHCG = assay: Post-emergence herbicidal action against ECHCG; format: in vivo, Echinochloa crus-galli; conditions: 80 g/ha, visual assessment about 3 weeks after treatment vs untreated controls
Method in brief: as §1

ALOMY = assay: Post-emergence herbicidal action against ALOMY; format: in vivo, Alopecurus myosuroides; conditions: 80 g/ha, visual assessment after about 3 weeks
Method in brief: as §1

SETVI = assay: Post-emergence herbicidal action against SETVI; format: in vivo, Setaria viridis; conditions: 80 g/ha, visual assessment about 3 weeks after treatment vs untreated controls
Method in brief: as §1

| Structure (SMILES) | Post-emergence action against DIGSA in % (DIGSA) | Post-emergence action against HORMU in % (HORMU) | Post-emergence action against AVEFA in % (AVEFA) | Post-emergence action against LOLRI in % (LOLRI) | Post-emergence action against ECHCG in % (ECHCG) | Post-emergence action against ALOMY in % (ALOMY) | Post-emergence action against SETVI in % (SETVI) |
| --- | --- | --- | --- | --- | --- | --- | --- |
| CC#Cc1cc(Cl)c(C2=C(O)C3(CCC(COC)C3)NC2=O)c(CC)c1 (stereo not shown) [Example I-04] | 100% | 100% | 100% | 100% | 100% | 100% | 100% |
| CC#Cc1cc(Cl)c(C2=C(OC(=O)C(C)C)C3(CCC(COCC)C3)NC2=O)c(CC)c1 (stereo not shown) [Example P-12] | 100% | 100% | 100% | 100% | 100% | 100% | 100% |
| CC#Cc1cc(C)c(C2=C(O)C3(CCC(COCC)C3)NC2=O)c(Cl)c1 (stereo not shown) [Example I-09] | 100% | 100% | 100% | 100% | 100% | 100% | 100% |
| C#Cc1cc(Cl)c(C2=C(O)C3(CCC(COC)C3)NC2=O)c(OC)c1 (stereo not shown) [Example I-13] | 100% | 90% | 90% | 90% | 100% | 100% | 100% |
| CC#Cc1cc(Cl)c(C2=C(O)C3(CCC(COCC)C3)NC2=O)c(CC)c1 (stereo not shown) [Example I-15] | 100% | 100% | 100% | 100% | 100% | 100% | 100% |
| CC#Cc1cc(Cl)c(C2=C(OC(=O)OCC)C3(CCC(COC)C3)NC2=O)c(CC)c1 (stereo not shown) [Example P-06] | 100% | 100% | 100% | 100% | 100% | 100% | 100% |
| C#Cc1cc(Cl)c(C2=C(O)C3(CCC(COCC)C3)NC2=O)c(OC)c1 (stereo not shown) [Example I-14] | 90% | 90% | 90% | 90% | 90% | 90% | 90% |
| CC#Cc1cc(C)c(C2=C(OC(=O)OCC)C3(CCC(COCC)C3)NC2=O)c(Cl)c1 (stereo not shown) [Example P-11] | 100% | 100% | 100% | 100% | – | 80% | 100% |
| CC#Cc1cc(Cl)c(C2=C(O)C3(CCC(COC)C3)NC2=O)c(CC)c1 (stereo not shown) [Example I-16] | 100% | 100% | 100% | 100% | 100% | 100% | 100% |
| CC#Cc1cc(Cl)c(C2=C(O)C3(CCC(COCC)C3)NC2=O)c(OC)c1 (stereo not shown) [Example I-07] | 100% | 100% | 100% | 100% | 100% | 100% | 100% |
| CC#Cc1cc(C)c(C2=C(OC(=O)OCC)C3(CCC(COCC)C3)NC2=O)c(Cl)c1 (stereo not shown) [Example P-09] | 100% | 100% | 100% | 100% | 100% | 100% | 100% |
| C#Cc1cc(Cl)c(C2=C(OC(=O)OCC)C3(CCC(COC)C3)NC2=O)c(OC)c1 (stereo not shown) [Example P-19] | 90% | 100% | 100% | 100% | 100% | 80% | 100% |
| C#Cc1cc(Cl)c(C2=C(OC(=O)OCC)C3(CCC(COC)C3)NC2=O)c(OC)c1 (stereo not shown) [Example P-02] | 100% | 100% | 100% | 100% | 100% | 100% | 100% |
| C#Cc1cc(Cl)c(C2=C(O)C3(CCC(COC)C3)NC2=O)c(OC)c1 (stereo not shown) [Example I-01] | 90% | 100% | 90% | 100% | 90% | 100% | 90% |
| CC#Cc1cc(Cl)c(C2=C(OC(=O)OCC)C3(CCC(COC)C3)NC2=O)c(CC)c1 (stereo not shown) [Example P-15] | 100% | 100% | 100% | 100% | 100% | 100% | 100% |
| CC#Cc1cc(Cl)c(C2=C(O)C3(CCC(COCC)C3)NC2=O)c(CC)c1 (stereo not shown) [Example I-03] | 100% | 100% | 100% | 100% | 100% | 100% | 100% |
| C#Cc1cc(Cl)c(C2=C(O)C3(CCC(COCC)C3)NC2=O)c(OC)c1 (stereo not shown) [Example I-08] | 80% | 80% | 90% | 90% | – | 80% | 90% |
| CC#Cc1cc(Cl)c(C2=C(OC(=O)C(C)C)C3(CCC(COCC)C3)NC2=O)c(CC)c1 (stereo not shown) [Example P-07] | 100% | 100% | 100% | 100% | 100% | 100% | 100% |
